Source: article PMC10141580, “Cyclic Dichalcogenides Extend the Reach of Bioreductive Prodrugs to Harness Thiol/Disulfide Oxidoreductases: Applications to seco-Duocarmycins Targeting the Thioredoxin System” (ACS Central Science, 2023)
Like-named read-outs stand apart in the source and are kept apart here.

Tested on: NCI-60 standardized human tumor cell line panel
Assay: cells
Type: cell-based
Conditions: for NCI-60 screening: Log(RedIndex): log10 reductive index vs P-CC60; for GI50: Homo sapiens

Compound: COc1cc2cc(C(=O)N3C[C@@H](CCl)c4c3cc(OC(=O)N3CCN(C(=O)CCC(=O)N5CCN(C)CC5)[C@H]5CSSC[C@H]53)c3ccccc43)[nH]c2c(OC)c1OC [P-SS66C-CBI-TMI]
- reductive activation index ratio NCI-60/ProliFiler, mean (19 overlapping cell lines): 1.8 fold
- NCI-60 screening: Log(RedIndex) (786-0 (RE) cell line): 1.22
- NCI-60 screening: Log(RedIndex) (A498 (RE) cell line): 1.1
- NCI-60 screening: Log(RedIndex) (ACHN (RE) cell line): 1.07
- NCI-60 screening: Log(RedIndex) (CAKI-1 (RE) cell line): 0.94
- NCI-60 screening: Log(RedIndex) (DU-145 (PR) cell line): 1.27
- GI50 (786-0, 786-0 (RE) cell line, log10 of GI50 in M, read-out: NCI-60 screening: Log(GI50) (converted)): 105 nM
- GI50 (786-0, 786-0 (RE) cell line, read-out: NCI-60 screening: Raw GI50): 110 nM
- GI50 (786-0, 786-0, read-out: GI50): 110 nM
- GI50 (A498, A498 (RE) cell line, log10 of GI50 in M, read-out: NCI-60 screening: Log(GI50) (converted)): 219 nM
- GI50 (A498, A498, read-out: GI50): 220 nM
- GI50 (A549, A549/ATCC, read-out: GI50): 90 nM
- GI50 (A549, cell line A549/ATCC (LC:A549/ATCC), TMI sheet, read-out: NCI-60 screening: Log(GI50) (converted)): 89.1 nM
- GI50 (ACHN, ACHN (RE) cell line, log10 of GI50 in M, read-out: NCI-60 screening: Log(GI50) (converted)): 42.7 nM
- GI50 (ACHN, read-out: GI50): 42 nM
- GI50 (BT-549, BT-549, read-out: GI50): 140 nM
- GI50 (BT-549, cell line BT-549 (BR:BT-549), TMI sheet, read-out: NCI-60 screening: Log(GI50) (converted)): 145 nM
- GI50 (BT-549, cell line BT-549 (BR:BT-549), TMI sheet, read-out: NCI-60 screening: Raw GI50): 140 nM
- GI50 (CAKI-1, CAKI-1 (RE) cell line, log10 of GI50 in M, read-out: NCI-60 screening: Log(GI50) (converted)): 174 nM
- GI50 (CAKI-1, Caki-1, read-out: GI50): 170 nM
- GI50 (CCRF-CEM, cell line CCRF-CEM (LE:CCRF-CEM), TMI sheet, read-out: NCI-60 screening: Log(GI50) (converted)): 269 nM
- GI50 (CCRF-CEM, cell line CCRF-CEM (LE:CCRF-CEM), TMI sheet, read-out: NCI-60 screening: Raw GI50): 270 nM
- GI50 (CCRF-CEM, read-out: GI50): 270 nM
- GI50 (COLO 205, Colo 205, read-out: GI50): 140 nM
- GI50 (COLO 205, cell line COLO 205 (CO:COLO 205), TMI sheet, read-out: NCI-60 screening: Log(GI50) (converted)): 145 nM
- GI50 (COLO 205, cell line COLO 205 (CO:COLO 205), TMI sheet, read-out: NCI-60 screening: Raw GI50): 140 nM
- GI50 (DU-145, DU-145 (PR) cell line, log10 of GI50 in M, read-out: NCI-60 screening: Log(GI50) (converted)): 24.5 nM
- GI50 (DU-145, DU-145, read-out: GI50): 25 nM
- GI50 (EKVX, cell line EKVX (LC:EKVX), TMI sheet, read-out: NCI-60 screening: Log(GI50) (converted)): 209 nM
- GI50 (EKVX, read-out: GI50): 210 nM
- GI50 (HCC 2998, HCC-2998, read-out: GI50): 54 nM
- GI50 (HCC 2998, cell line HCC-2998 (CO:HCC-2998), TMI sheet, read-out: NCI-60 screening: Log(GI50) (converted)): 53.7 nM
- GI50 (HCT-15, HCT-15, read-out: GI50): 240 nM
- GI50 (HCT-15, cell line HCT-15 (CO:HCT-15), TMI sheet, read-out: NCI-60 screening: Log(GI50) (converted)): 245 nM
- GI50 (HCT-15, cell line HCT-15 (CO:HCT-15), TMI sheet, read-out: NCI-60 screening: Raw GI50): 240 nM
- GI50 (HCT-116, HCT-116, read-out: GI50): 150 nM
- GI50 (HCT-116, cell line HCT-116 (CO:HCT-116), TMI sheet, read-out: NCI-60 screening: Log(GI50) (converted)): 155 nM
- GI50 (HCT-116, cell line HCT-116 (CO:HCT-116), TMI sheet, read-out: NCI-60 screening: Raw GI50): 150 nM
- GI50 (HL-60, HL-60(TB), read-out: GI50): 48 nM
- GI50 (HL-60, cell line HL-60(TB) (LE:HL-60(TB)), TMI sheet, read-out: NCI-60 screening: Log(GI50) (converted)): 47.9 nM
- GI50 (HOP-62, HOP-62, read-out: GI50): 41 nM
- GI50 (HOP-62, cell line HOP-62 (LC:HOP-62), TMI sheet, read-out: NCI-60 screening: Log(GI50) (converted)): 41.7 nM
- GI50 (HOP-92, HOP-92, read-out: GI50): 180 nM
- GI50 (HOP-92, cell line HOP-92 (LC:HOP-92), TMI sheet, read-out: NCI-60 screening: Log(GI50) (converted)): 178 nM
- GI50 (HT-29, HT29, read-out: GI50): 140 nM
- GI50 (HT-29, cell line HT29 (CO:HT29), TMI sheet, read-out: NCI-60 screening: Log(GI50) (converted)): 141 nM
- GI50 (HT-29, cell line HT29 (CO:HT29), TMI sheet, read-out: NCI-60 screening: Raw GI50): 140 nM
- GI50 (Hs-578T, read-out: GI50): 290 nM
- GI50 (Hs-578T, read-out: NCI-60 screening: Log(GI50) (converted)): 295 nM
- GI50 (IGROV-1, IGROV1 (OV) cell line, log10 of GI50 in M, read-out: NCI-60 screening: Log(GI50) (converted)): 200 nM
- GI50 (IGROV-1, IGROV1, read-out: GI50): 200 nM
- GI50 (K562, K-562, read-out: GI50): 89 nM
- GI50 (K562, cell line K-562 (LE:K-562), TMI sheet, read-out: NCI-60 screening: Log(GI50) (converted)): 89.1 nM
- GI50 (KM12, KM12, read-out: GI50): 130 nM
- GI50 (KM12, cell line KM12 (CO:KM12), TMI sheet, read-out: NCI-60 screening: Log(GI50) (converted)): 132 nM
- GI50 (KM12, cell line KM12 (CO:KM12), TMI sheet, read-out: NCI-60 screening: Raw GI50): 130 nM
- GI50 (LOX IMVI, cell line LOX IMVI (ME:LOX IMVI), TMI sheet, read-out: NCI-60 screening: Log(GI50) (converted)): 69.2 nM
- GI50 (LOX IMVI, read-out: GI50): 69 nM
- GI50 (M14, M14, read-out: GI50): 120 nM
- GI50 (MCF7, MCF7, read-out: GI50): 15 nM
- GI50 (MCF7, cell line MCF7 (BR:MCF7), TMI sheet, read-out: NCI-60 screening: Log(GI50) (converted)): 14.8 nM
- GI50 (MDA-MB-435, MDA-MB-435, read-out: GI50): 150 nM
- GI50 (MDA-MB-435, cell line MDA-MB-435 (ME:MDA-MB-435), TMI sheet, read-out: NCI-60 screening: Log(GI50) (converted)): 148 nM
- GI50 (MDA-MB-435, cell line MDA-MB-435 (ME:MDA-MB-435), TMI sheet, read-out: NCI-60 screening: Raw GI50): 150 nM
- GI50 (MDA-MB-468, MDA-MB-468, read-out: GI50): 37 nM
- GI50 (MOLT-4, MOLT-4, read-out: GI50): 63 nM
- GI50 (MOLT-4, cell line MOLT-4 (LE:MOLT-4), TMI sheet, read-out: NCI-60 screening: Log(GI50) (converted)): 63.1 nM
- GI50 (Malme-3M, cell line MALME-3M (ME:MALME-3M), TMI sheet, read-out: NCI-60 screening: Log(GI50) (converted)): 135 nM
- GI50 (Malme-3M, cell line MALME-3M (ME:MALME-3M), TMI sheet, read-out: NCI-60 screening: Raw GI50): 130 nM
- GI50 (Malme-3M, read-out: GI50): 130 nM
- GI50 (NCI-H23, NCI-H23, read-out: GI50): 19 nM
- GI50 (NCI-H23, cell line NCI-H23 (LC:NCI-H23), TMI sheet, read-out: NCI-60 screening: Log(GI50) (converted)): 18.6 nM
- GI50 (NCI-H23, cell line NCI-H23 (LC:NCI-H23), TMI sheet, read-out: NCI-60 screening: Raw GI50): 19 nM
- GI50 (NCI-H226, NCI-H226, read-out: GI50): 240 nM
- GI50 (NCI-H226, cell line NCI-H226 (LC:NCI-H226), TMI sheet, read-out: NCI-60 screening: Log(GI50) (converted)): 245 nM
- GI50 (NCI-H226, cell line NCI-H226 (LC:NCI-H226), TMI sheet, read-out: NCI-60 screening: Raw GI50): 240 nM
- GI50 (NCI-H322M, read-out: GI50): 50 nM
- GI50 (NCI-H322M, read-out: NCI-60 screening: Log(GI50) (converted)): 50.1 nM
- GI50 (NCI-H460, NCI-H460 (LC) cell line, log10 of GI50 in M, read-out: NCI-60 screening: Log(GI50) (converted)): 22.4 nM
- GI50 (NCI-H460, NCI-H460, read-out: GI50): 22 nM
- GI50 (NCI-H522, NCI-H522 (LC) cell line, log10 of GI50 in M, read-out: NCI-60 screening: Log(GI50) (converted)): 55 nM
- GI50 (NCI-H522, NCI-H522, read-out: GI50): 56 nM
- GI50 (OVCAR-3, OVCAR-3 (OV) cell line, log10 of GI50 in M, read-out: NCI-60 screening: Log(GI50) (converted)): 145 nM
- GI50 (OVCAR-3, OVCAR-3 (OV) cell line, read-out: NCI-60 screening: Raw GI50): 140 nM
- GI50 (OVCAR-3, OVCAR-3, read-out: GI50): 140 nM
- GI50 (OVCAR-4, OVCAR-4 (OV) cell line, log10 of GI50 in M, read-out: NCI-60 screening: Log(GI50) (converted)): 195 nM
- GI50 (OVCAR-4, OVCAR-4, read-out: GI50): 190 nM
- GI50 (OVCAR-5, OVCAR-5 (OV) cell line, log10 of GI50 in M, read-out: NCI-60 screening: Log(GI50) (converted)): 257 nM
- GI50 (OVCAR-5, OVCAR-5, read-out: GI50): 250 nM
- GI50 (OVCAR-8, OVCAR-8 (OV) cell line, log10 of GI50 in M, read-out: NCI-60 screening: Log(GI50) (converted)): 91.2 nM
- GI50 (OVCAR-8, OVCAR-8, read-out: GI50): 92 nM
- GI50 (PC-3 (PR) cell line, log10 of GI50 in M, read-out: NCI-60 screening: Log(GI50) (converted)): 479 nM
